Experimental data: the NIST ThermoML archive (doi:10.1016/j.jct.2016.07.041)
Numbers after ± are expanded uncertainties.

Assay: xn = mol fraction of the nth substance listed
Conditions: 101 kPa, Liquid; for viscosity: Capillary tube (Ostwald / Ubbelohde) method; for mass density: Vibrating tube method

CCCCn1cc[n+](C)c1.F[B-](F)(F)F [1-butyl-3-methylimidazolium tetrafluoroborate] + O
Conditions | mass density, 293.15 K [kg/m3] | mass density, 303.15 K [kg/m3] | mass density, 313.15 K [kg/m3] | mass density, 323.15 K [kg/m3] | mass density, 333.15 K [kg/m3] | viscosity, 293.15 K [mPa·s] | viscosity, 303.15 K [mPa·s] | viscosity, 313.15 K [mPa·s] | viscosity, 323.15 K [mPa·s] | viscosity, 333.15 K [mPa·s]
x1 = 0.0998 | 1103.7 ± 1.9 | 1097.3 ± 1.9 | 1090.3 ± 1.8 | 1083.4 ± 1.8 | 1076.4 ± 1.8 | 3.23 ± 0.22 | 2.41 ± 0.16 | 1.88 ± 0.12 | 1.51 ± 0.1 | 1.24 ± 0.08
x1 = 0.1998 | 1141.5 ± 1.6 | 1134.5 ± 1.6 | 1126.9 ± 1.6 | 1119.6 ± 1.6 | 1112.2 ± 1.6 | 5.52 ± 0.35 | 4.12 ± 0.26 | 3.2 ± 0.2 | 2.56 ± 0.16 | 2.1 ± 0.13
x1 = 0.2994 | 1161.1 ± 1.3 | 1153.8 ± 1.3 | 1146.3 ± 1.3 | 1139 ± 1.3 | 1131.5 ± 1.3 | 8.41 ± 0.52 | 6.21 ± 0.39 | 4.78 ± 0.3 | 3.79 ± 0.24 | 3.1 ± 0.19
x1 = 0.3992 | 1173.4 ± 1.3 | 1166 ± 1.2 | 1158.7 ± 1.2 | 1151.4 ± 1.2 | 1144 ± 1.2 | 12.3 ± 0.77 | 8.95 ± 0.56 | 6.79 ± 0.42 | 5.34 ± 0.33 | 4.31 ± 0.27
x1 = 0.5005 | 1182.3 ± 1.2 | 1175 ± 1.2 | 1167.7 ± 1.2 | 1160.5 ± 1.2 | 1153.3 ± 1.2 | 17.96 ± 1.1 | 12.87 ± 0.8 | 9.63 ± 0.59 | 7.5 ± 0.46 | 6 ± 0.37
x1 = 0.5984 | 1188.9 ± 1.2 | 1181.6 ± 1.2 | 1174.3 ± 1.2 | 1167.1 ± 1.2 | 1160.1 ± 1.2 | 25.98 ± 1.6 | 18.1 ± 1.1 | 13.27 ± 0.82 | 10.11 ± 0.62 | 7.99 ± 0.49
x1 = 0.6985 | 1194.2 ± 1.2 | 1187 ± 1.2 | 1179.8 ± 1.2 | 1172.6 ± 1.2 | 1165.7 ± 1.2 | 39.21 ± 2.5 | 26.48 ± 1.6 | 18.9 ± 1.2 | 14.06 ± 0.87 | 10.79 ± 0.66
x1 = 0.7988 | 1198.5 ± 1.2 | 1191.4 ± 1.2 | 1184.3 ± 1.2 | 1177.1 ± 1.2 | 1170 ± 1.2 | 59.53 ± 3.7 | 38.86 ± 2.4 | 26.55 ± 1.6 | 19.05 ± 1.2 | 14.31 ± 0.88
x1 = 0.8982 | 1202 ± 1.2 | 1195 ± 1.2 | 1187.8 ± 1.2 | 1180.6 ± 1.2 | 1173.6 ± 1.2 | 89.35 ± 5.7 | 55.67 ± 3.5 | 37.01 ± 2.3 | 25.16 ± 1.6 | 18.53 ± 1.1
x1 = 1 | 1205.1 ± 1.2 | 1198 ± 1.2 | 1190.8 ± 1.2 | 1183.7 ± 1.2 | 1176.8 ± 1.2 | 139.12 ± 8.7 | 82.49 ± 5 | 52.33 ± 3.1 | 35.16 ± 2.1 | 24.69 ± 1.5

NCCO [2-aminoethan-1-ol] + CCCCn1cc[n+](C)c1.F[B-](F)(F)F
Conditions | mass density, 293.15 K [kg/m3] | mass density, 303.15 K [kg/m3] | mass density, 313.15 K [kg/m3] | mass density, 323.15 K [kg/m3] | mass density, 333.15 K [kg/m3] | viscosity, 293.15 K [mPa·s] | viscosity, 303.15 K [mPa·s] | viscosity, 313.15 K [mPa·s] | viscosity, 323.15 K [mPa·s] | viscosity, 333.15 K [mPa·s]
x2 = 0 | 1015.5 ± 1 | 1007.6 ± 1 | 999.7 ± 1 | 991.7 ± 1 | 983.6 ± 1 | 23.65 ± 1.4 | 14.75 ± 0.89 | 9.78 ± 0.59 | 6.81 ± 0.41 | 4.99 ± 0.3
x2 = 0.1001 | 1065.1 ± 2 | 1057.3 ± 2 | 1049.3 ± 2 | 1041.4 ± 2 | 1033.4 ± 2 | 26.23 ± 1.6 | 16.27 ± 0.98 | 10.72 ± 0.65 | 7.39 ± 0.45 | 5.38 ± 0.33
x2 = 0.2 | 1098.6 ± 1.6 | 1090.6 ± 1.6 | 1082.8 ± 1.6 | 1075 ± 1.6 | 1067.2 ± 1.6 | 29.02 ± 1.8 | 17.98 ± 1.1 | 11.84 ± 0.72 | 8.21 ± 0.5 | 6.02 ± 0.36
x2 = 0.2999 | 1123 ± 1.4 | 1115.4 ± 1.4 | 1107.6 ± 1.4 | 1099.8 ± 1.4 | 1092.1 ± 1.4 | 32.91 ± 2 | 20.36 ± 1.2 | 13.45 ± 0.81 | 9.29 ± 0.56 | 6.82 ± 0.41
x2 = 0.3751 | 1137.9 ± 1.3 | 1130.3 ± 1.3 | 1122.5 ± 1.3 | 1114.8 ± 1.3 | 1107.1 ± 1.3 | 36.29 ± 2.2 | 22.48 ± 1.4 | 14.89 ± 0.9 | 10.41 ± 0.63 | 7.57 ± 0.46
x2 = 0.5002 | 1157.4 ± 1.3 | 1149.9 ± 1.3 | 1142.3 ± 1.3 | 1134.7 ± 1.3 | 1127.1 ± 1.3 | 43.39 ± 2.6 | 26.71 ± 1.6 | 17.78 ± 1.1 | 12.4 ± 0.75 | 9.11 ± 0.55
x2 = 0.5997 | 1169.7 ± 1.3 | 1162.5 ± 1.3 | 1154.9 ± 1.3 | 1147.4 ± 1.3 | 1139.9 ± 1.2 | 51.66 ± 3.1 | 31.82 ± 1.9 | 20.98 ± 1.3 | 14.53 ± 0.88 | 10.6 ± 0.64
x2 = 0.6996 | 1180.2 ± 1.3 | 1173 ± 1.2 | 1165.4 ± 1.2 | 1158.2 ± 1.2 | 1150.7 ± 1.2 | 61.28 ± 3.7 | 37.57 ± 2.3 | 24.39 ± 1.5 | 17.03 ± 1 | 12.51 ± 0.76
x2 = 0.8 | 1189.4 ± 1.3 | 1182.3 ± 1.2 | 1174.8 ± 1.2 | 1167.5 ± 1.2 | 1160.3 ± 1.2 | 75.78 ± 4.6 | 46.5 ± 2.8 | 30.43 ± 1.9 | 21.12 ± 1.3 | 15.41 ± 0.94
x2 = 0.9003 | 1197.8 ± 1.3 | 1190.6 ± 1.2 | 1183.4 ± 1.2 | 1176.1 ± 1.2 | 1169.1 ± 1.2 | 98.71 ± 6.2 | 59.85 ± 3.7 | 39.19 ± 2.4 | 26.65 ± 1.6 | 19.22 ± 1.2

NCCO [2-aminoethan-1-ol] + O
Conditions | mass density, 293.15 K [kg/m3] | mass density, 303.15 K [kg/m3] | mass density, 313.15 K [kg/m3] | mass density, 323.15 K [kg/m3] | mass density, 333.15 K [kg/m3] | viscosity, 293.15 K [mPa·s] | viscosity, 303.15 K [mPa·s] | viscosity, 313.15 K [mPa·s] | viscosity, 323.15 K [mPa·s] | viscosity, 333.15 K [mPa·s]
x1 = 0.0996 | 1010.9 ± 1.1 | 1006.8 ± 1.1 | 1002.1 ± 1.1 | 996.9 ± 1 | 991.2 ± 1 | 2.54 ± 0.19 | 1.89 ± 0.14 | 1.45 ± 0.1 | 1.15 ± 0.08 | 0.93 ± 0.06
x1 = 0.1991 | 1021.6 ± 1.1 | 1016.1 ± 1.1 | 1010.2 ± 1 | 1004 ± 1 | 997.6 ± 1 | 5.52 ± 0.37 | 3.84 ± 0.25 | 2.8 ± 0.18 | 2.09 ± 0.13 | 1.62 ± 0.1
x1 = 0.2986 | 1027.4 ± 1 | 1021 ± 1 | 1014.4 ± 1 | 1007.5 ± 1 | 1000.4 ± 1 | 10.06 ± 0.64 | 6.65 ± 0.42 | 4.62 ± 0.29 | 3.35 ± 0.21 | 2.52 ± 0.16
x1 = 0.3977 | 1029.4 ± 1 | 1022.5 ± 1 | 1015.4 ± 1 | 1007.8 ± 1 | 1000.6 ± 1 | 15.1 ± 0.93 | 9.64 ± 0.59 | 6.52 ± 0.4 | 4.66 ± 0.29 | 3.41 ± 0.21
x1 = 0.4967 | 1028.9 ± 1 | 1021.5 ± 1 | 1014.2 ± 1 | 1006.6 ± 1 | 999 ± 1 | 19.57 ± 1.2 | 12.22 ± 0.74 | 8.1 ± 0.49 | 5.67 ± 0.34 | 4.09 ± 0.25
x1 = 0.5958 | 1027 ± 1 | 1019.4 ± 1 | 1011.9 ± 1 | 1004.3 ± 1 | 996.5 ± 1 | 22.91 ± 1.4 | 14.08 ± 0.85 | 9.33 ± 0.56 | 6.46 ± 0.39 | 4.65 ± 0.28
x1 = 0.6946 | 1024.4 ± 1 | 1016.8 ± 1 | 1009 ± 1 | 1001.2 ± 1 | 993.4 ± 1 | 24.48 ± 1.5 | 15.01 ± 0.91 | 9.75 ± 0.59 | 6.9 ± 0.42 | 4.95 ± 0.3
x1 = 0.7932 | 1021.6 ± 1 | 1013.8 ± 1 | 1006 ± 1 | 998.2 ± 1 | 990.2 ± 1 | 25 ± 1.5 | 15.36 ± 0.93 | 9.98 ± 0.6 | 6.91 ± 0.42 | 4.99 ± 0.3
x1 = 0.8919 | 1018.7 ± 1 | 1010.8 ± 1 | 1002.9 ± 1 | 995 ± 1 | 987 ± 1 | 24.58 ± 1.5 | 15.16 ± 0.92 | 9.94 ± 0.6 | 6.89 ± 0.42 | 4.99 ± 0.3
x1 = 1 | 1015.5 ± 1 | 1007.6 ± 1 | 999.7 ± 1 | 991.7 ± 1 | 983.6 ± 1 | 23.65 ± 1.4 | 14.75 ± 0.89 | 9.78 ± 0.59 | 6.81 ± 0.41 | 4.99 ± 0.3
